Assay results: US20230142739A1, “PROTEIN-PROTEIN INTERACTION STABILIZERS” (The Regents of the University of California, priority 2020, published 2023)

How the values were obtained:
Format in all cases: binding
[1] = target: T1, 14-3-3/Pin1_72 complex (Homo sapiens, UniProt P61981); test: Cooperativity analysis, 14-3-3 titrations at varied constant fragment concentration
T1 construct: the full length 14-3-3γ was dialysis against 25 mM HEPES pH 7.5; made in house; host or cells: E. coli BL21(DE3), pPROEX HTb
Description: Cooperativity in ternary complex formation. In contrast to PPI inhibition, where affinity to one of the protein pockets is the driving force for drug development, design of molecular glues is driven by cooperative ternary complex formation. Both CC50 and SF values are concentration dependent values and might differ based on assay design. […] Cooperative complex formation is often accompanied by structural changes of the interface of a complex which translates to increased stability of the ternary com-plex. In order to assess cooperativity of the ternary complex, fragments 13, 23, 27 and 28 were selected for cooper-activity analysis. The α-factor of the fragments were determined using 14-3-3 titrations in the presence of varied, but constant concentration of fragment in a dose-dependent manner. […] Further, the interval of change in stabilization further describes the systems cooperative behaviour.
However, at higher concentration regimes significant assay interference was observed, probably due to compound aggregation. Fragments 23, 27 and 28 all reached saturation or approached saturation enabling accurate determination of α-factor. […] KD remains constant also at higher concentrations of FC-A, indicating non-specific effects.

[2] = target: T2, ERRγ_179 peptide/14-3-3 (Homo sapiens, UniProt P61981); test: Selectivity screening FA, ERRγ_179 peptide; conditions: 100 μM fragment
T2 construct: the full length 14-3-3γ was dialysis against 25 mM HEPES pH 7.5; made in house; host or cells: E. coli BL21(DE3), pPROEX HTb
Description: (§1) Selectivity screening of covalent fragments. Drugging the hub protein 14-3-3 raises the challenge of selectivity. We hypothesized that the high level of cooperative behavior for 14-3-3/Pin1_72/28 complex is a function of the unique functionality and topology of the interface, specifically the +1 and +3 amino acid of Pin1_72 with the covalent fragment. We further rationalized that this cooperativity would likely translate to high selectivity. To test this hypothesis, fragments 13, 27 and 28 were screened at a single fragment concentration (100 μM) against a panel of 13 peptides as diverse representatives of 14-3-3 client proteins, differing in size and hydrophobicity of the +1 amino acid (FIG. 22A).
(§2) Fluorescence Anisotropy (FA) Assays.

[3] = target: T3, CFTRpS753/14-3-3 (Homo sapiens, UniProt P61981); test: Selectivity screening FA, CFTRpS753 peptide; conditions: 100 μM fragment
T3 construct: the full length 14-3-3γ was dialysis against 25 mM HEPES pH 7.5; made in house; host or cells: E. coli BL21(DE3), pPROEX HTb
T3 sequence (P13569 747-774 partner limits assumed, one chain of several): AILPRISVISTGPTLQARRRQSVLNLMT
Method: (§3) Selectivity screening of covalent fragments. Drugging the hub protein 14-3-3 raises the challenge of selectivity.
(§4) This was investigated by comparing the effect of 13, 27 and 28 on 14-3-3 interaction partners with a leucine (Abl1pT735), isoleucine (p65pS45), or valine (CFTRpS753) at the +1 position.
(§5) Fluorescence Anisotropy (FA) Assays. […] All FA assays were measured in FA buffer (10 mM HEPES pH 7.4, 150 mM NaCl, 0.1% Tween20, 1% BSA) in Corning 384 well plates (black, round bottom, low binding). Plates were incubated overnight prior to anisotropy measurements with the Tecan Infinite 500 plate reader (λexcitation=485 nm, λemission=535 nm).

[4] = target: T4, C-Raf peptide/14-3-3 (Homo sapiens, UniProt P61981); test: Selectivity screening FA, C-Raf peptide; conditions: 100 μM fragment
T4 construct: the full length 14-3-3γ was dialysis against 25 mM HEPES pH 7.5; made in house; host or cells: E. coli BL21(DE3), pPROEX HTb
Description: as §1, §2

[5] = target: T5, Raptor/14-3-3γ binary complex (Homo sapiens, UniProt P61981); test: Selectivity screening FA, Raptor peptide; conditions: 100 μM fragment
T5 construct: the full length 14-3-3γ was dialysis against 25 mM HEPES pH 7.5; made in house; host or cells: E. coli BL21(DE3), pPROEX HTb
Description: as §1
Following the importance of the tryptophan for complex stabilization of Pin1_72/14-3-3γ with the benzaldehydes, the influence of phenylalanine (AS160) and tyrosine (Raptor) were investigated (FIGS. 22A-22B). […] Unlike Pin1_72, the C-terminus of AS160 engages Phe+1 in intramolecular hydrophobic contacts with Pro+4 and Pro+5. The +1 phenylalanine likely cannot rearrange to allow fragment binding.
as §2

[6] = target: T6, 14-3-3/ERα complex (Homo sapiens, UniProt P61981); test: Selectivity screening FA, ERα peptide; conditions: 100 μM fragment
T6 construct: the full length 14-3-3γ was dialysis against 25 mM HEPES pH 7.5; made in house; host or cells: E. coli BL21(DE3), pPROEX HTb
T6 sequence (P61981 1-247): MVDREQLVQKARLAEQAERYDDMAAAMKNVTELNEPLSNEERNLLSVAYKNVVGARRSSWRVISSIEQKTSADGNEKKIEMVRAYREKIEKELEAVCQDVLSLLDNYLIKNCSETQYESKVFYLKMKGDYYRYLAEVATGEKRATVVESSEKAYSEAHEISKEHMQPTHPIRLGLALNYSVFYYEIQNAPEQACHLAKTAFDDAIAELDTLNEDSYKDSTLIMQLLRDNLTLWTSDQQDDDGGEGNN
Description: as §1, §2

[7] = target: T7, Abl1pT735/14-3-3 (Homo sapiens, UniProt P61981); test: Selectivity screening FA, Abl1pT735 peptide; conditions: 100 μM fragment
T7 construct: the full length 14-3-3γ was dialysis against 25 mM HEPES pH 7.5; made in house; host or cells: E. coli BL21(DE3), pPROEX HTb
Method: as §3, §4, §5

[8] = target: T8, p65pS45/14-3-3 (Homo sapiens, UniProt P61981); test: Selectivity screening FA, p65pS45 peptide; conditions: 100 μM fragment
T8 construct: the full length 14-3-3γ was dialysis against 25 mM HEPES pH 7.5; made in house; host or cells: E. coli BL21(DE3), pPROEX HTb
T8 sequence (as listed by the source partner, one chain of several): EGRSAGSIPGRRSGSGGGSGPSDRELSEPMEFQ
Method: as §3, §4, §5

[9] = target: T9, Mypt1_472 peptide/14-3-3 (Homo sapiens, UniProt P61981); test: Selectivity screening FA, Mypt1_472 peptide; conditions: 100 μM fragment
T9 construct: the full length 14-3-3γ was dialysis against 25 mM HEPES pH 7.5; made in house; host or cells: E. coli BL21(DE3), pPROEX HTb
Description: as §1, §2

[10] = target: T10, TBC1D237 peptide/14-3-3 (Homo sapiens, UniProt P61981); test: Selectivity screening FA, TBC1D237 peptide; conditions: 100 μM fragment
T10 construct: the full length 14-3-3γ was dialysis against 25 mM HEPES pH 7.5; made in house; host or cells: E. coli BL21(DE3), pPROEX HTb
Description: as §1, §2

[11] = target: T11, B-Raf_729 peptide/14-3-3 (Homo sapiens, UniProt P61981); test: Selectivity screening FA, B-Raf_729 peptide; conditions: 100 μM fragment
T11 construct: the full length 14-3-3γ was dialysis against 25 mM HEPES pH 7.5; made in house; host or cells: E. coli BL21(DE3), pPROEX HTb
Description: as §1, §2

[12] = target: T12, 14-3-3/p65 (Homo sapiens, UniProt P61981); test: Cooperativity analysis of the 14-3-3/p65/28 complex; conditions: 1 mM compound; saturation not achieved
T12 construct: the full length 14-3-3γ was dialysis against 25 mM HEPES pH 7.5; made in house; host or cells: E. coli BL21(DE3), pPROEX HTb
T12 sequence (as listed by the source partner, one chain of several): as above
Method: Finally, we performed a cooperativity analysis of the 14-3-3/p65/28 complex to investigate how these structural observations translate to cooperativity. For the 14-3-3/p65/28 complex, saturation of the system was not achieved at concentration ≤1 mM with SF1 mM=37. […] The cooperative interactions within the 14-3-3/Pin1/28 complex are thus significant driving factors for the selective stabilization.

[13] = target: T13, Pin1_72/14-3-3γ (Homo sapiens, UniProt P61981+Q13526); test: FA protein titrations in presence of 100 μM fragment, 13 representative 14-3-3/peptide interactions; conditions: 14-3-3γ titrations
T13 construct: the full length 14-3-3γ was dialysis against 25 mM HEPES pH 7.5; made in house; host or cells: E. coli BL21(DE3), pPROEX HTb
Method: FIGS. 22A-22F. […] FIG. 22A: Radar plot of the SFs determined by FA protein titrations in presence of 100 μM fragment. […] Right: close-up. FIG. 22B: The SF values determined with 14-3-3γ titrations in presence of 100 μM 13, 27 or 28 in FA assays (n=2). FIG. 22C: Structural overlay of the known 14-3-3 binding epitopes used in this study. FIG. 22D: Overlay of the binding pose of 13, 27 and 28 (line representation) with the AS160 binding epitope (PDB: 7NIX). FIG. 22E: Overlay of crystal structures of 13 (2Fo-Fc map at 1 as mesh) binding to the p65_45 (violet sticks, carton)/14-3-3γ complex (PDB: 7NQP) and the CFTR (cyan sticks, cartoon)/14-3-3 complex (PDB: 5D3F, FC-A hidden for clarity). Hydrophobic contacts between 13 and Ile+1 of p65 and Val+1 of CFTR are indicated by transparent spheres.

cooperativity factor (α-factor) [1] | stabilization, ERRγ_179 [2] | SF, CFTR [3] | stabilizing activity, CFTRpS753 [3] | stabilization, C-Raf [4] | stabilization of the Raptor/14-3-3γ binary complex [5] [fold] | stabilization, ERα [6] | stabilizing activity, Abl1pT735 [7] | stabilizing activity, p65pS45 [8] | stabilization, Mypt1_472 [9] | stabilization, TBC1D237 [10] | stabilization, B-Raf_729 [11] | concentration necessary to induce a 2-fold increase in PPI stabilization [1] [µM] | stabilization of the Pin1/14-3-3 complex [1] [fold] | Compound | SF1 mM [12] | selectivity of stabilization among 13 14-3-3/peptide interactions [13]
approximately 60 | no significant stabilization | 12.5 | some stabilizing activity | abolishes any stabilizing effect | 9.5 | not responsive to fragment stabilization | some stabilizing activity | some stabilizing activity | no significant stabilization | no significant stabilization | no significant stabilization |  |  | O=Cc1ccc(-n2ccnc2-c2cc(Br)ccc2F)cc1Br [compound 27, 2-bromo-4-(2-(5-bromo-2-fluorophenyl)-1H-imidazol-1-yl)benzaldehyde] |  | 
270 | no significant stabilization |  | no significant complex stabilization | abolishes any stabilizing effect |  | not responsive to fragment stabilization | no significant complex stabilization | no significant complex stabilization | no significant stabilization | no significant stabilization | no significant stabilization | 1 | 270 | O=Cc1ccc(-n2ccnc2-c2ccc(F)cc2F)cc1Br [compound 28, 2-bromo-4-(2-(2,4-difluorophenyl)-1H-imidazol-1-yl)benzaldehyde] | 37 | selective stabilization of the 14-3-3/Pin1_72 complex
